Measurements as given in BindingDB's records for patent US10343992 (Missions Therapeutics, 2019).

Molecular target: T1, Ubiquitin carboxyl-terminal hydrolase 30 (Homo sapiens, UniProt Q70CQ3)
T1 sequence (Q70CQ3 whole entry): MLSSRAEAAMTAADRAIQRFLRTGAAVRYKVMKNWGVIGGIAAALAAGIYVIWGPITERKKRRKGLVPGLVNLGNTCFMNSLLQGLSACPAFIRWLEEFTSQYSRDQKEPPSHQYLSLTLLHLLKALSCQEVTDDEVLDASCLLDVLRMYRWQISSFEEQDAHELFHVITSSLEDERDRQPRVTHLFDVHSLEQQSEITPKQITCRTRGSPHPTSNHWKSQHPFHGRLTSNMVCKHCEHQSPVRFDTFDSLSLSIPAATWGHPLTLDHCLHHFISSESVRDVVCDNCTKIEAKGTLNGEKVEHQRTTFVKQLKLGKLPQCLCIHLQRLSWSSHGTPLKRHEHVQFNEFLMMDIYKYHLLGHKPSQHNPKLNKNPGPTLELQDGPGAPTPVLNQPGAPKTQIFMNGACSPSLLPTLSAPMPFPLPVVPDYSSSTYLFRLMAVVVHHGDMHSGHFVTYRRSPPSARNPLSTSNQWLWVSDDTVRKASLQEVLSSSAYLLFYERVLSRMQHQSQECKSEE
Assay: Biochemical Fluorescence Intensity Assay
Method: A typical 8-point dilution series would be 100, 30, 10, 3, 1, 0.3, 0.1, 0.03 μM final. […] USP30 was diluted in reaction buffer (40 mM Tris, pH 7.5, 0.005% Tween 20, 0.5 mg/ml BSA, 5 mM beta-mercaptoethanol) to the equivalent of 0.001 μl/well and 10 μl of diluted USP30 was added to the compound. Enzyme and compound were incubated for 30 min at room temp. […] Reactions were read immediately after addition of substrate and following a 2 h incubation at room temperature.

Cn1ccc(-c2ccc(NC(=O)N3CC[C@@H]4CN(C#N)C[C@@H]43)c(F)c2)n1 [US10343992, Example 245]
IC50: in the range around 550 nM

CN(C(=O)CC1=NC2C=C(c3cnn(C)c3)N=CC2N1)C1CCN(C#N)C1 (configuration not stated) [US10343992, Example 263]
IC50: in the range around 550 nM
